{"source": "patent US12319652B2", "about": "“Salts and solid forms of (R)-1-(5-methoxy-1H-indol-1-yl)-N,N-dimethylpropan-2-amine” (priority 2021, dated 2025)", "key": {"[1]": {"experiment": "Binary solvent evaporation crystallization of Compound 1 HCl", "protocol": "A binary solvent evaporation crystallization panel was performed. Separate portions of Compound 1 HCl 50 mg) were dissolved in a primary solvent of water (500 μl per sample) and a secondary solvent—one of either acetone (250 μl, A), acetonitrile (250 μl, B), THF (250 μl, C) and methanol (250 μl, D).\nEach vial was capped with aluminium foil, pieced and allowed to stand undisturbed until the evaporation was completed. Experimental details are included in Table 109."}, "[2]": {"experiment": "Suspension equilibration of compound 1 fumarate at 20 and 40° C.", "details": "10 vol total", "protocol": "Amorphous compound 1 fumarate was subjected to this technique at ambient temperature (20° C.) and at elevated temperature (40° C.), in a diverse range of solvents.\nAmorphous compound 1 fumarate underwent suspension equilibration in 19 single solvents at two different temperature set points (20 and 40° C.). The products were isolated by centrifugation and analysed wet by XRPD. After drying, the samples were reanalyzed.\nAt 20° C., dissolution or gumming was initially observed in the presence of most solvents; after several days, five of the gums had mobilised to give stable suspensions (refer to entries, Table 61). The products were isolated via centrifugation and the wet pellets were analysed by XRPD, oven dried and reanalysed by XRPD, TGA, DSC and ^1H NMR.\nThe companion screen performed at 40° C., yielded no hits. Consequently, the screen was repeated in the presence of an appropriate polarity modifier (either heptane or tBME), to ensure activity of the solvent was maintained while generating stable suspensions from the onset (refer to Table 62).\nSeparate portions of compound 1 (ca 50 mg, 1.0 wt.) were charged to separate vessels. The appropriate solvents (e.g. 250 μl, 5.0 vol), as described in Table and Table were charged to the vessels and the mixtures were stirred for several days at their relevant temperatures e.g. 20 to 40° C. After this time the products were cooled, isolated by centrifugation, analyzed as wet pellet by XRPD and dried under reduced pressure at 40° C. and re-analyzed by XRPD and companion analyses for evidence of alternative crystalline forms (FIGS. 74-77)."}, "[3]": {"details": "Heptane (7 parts)/2-Methyl THF (3 part)"}, "[4]": {"details": "Heptane (7 parts)/2-Propanol (3 part)"}, "[5]": {"details": "Heptane (7 parts)/Acetone (3 part)"}, "[6]": {"details": "Heptane (7 parts)/Acetonitrile (3 part)"}, "[7]": {"details": "Heptane (7 parts)/Chlorobenzene (3 part)"}, "[8]": {"details": "Heptane (7 parts)/Dichloromethane (3 part)"}, "[9]": {"details": "Heptane (7 parts)/Ethanol (3 part)"}, "[10]": {"details": "Heptane (7 parts)/Ethyl acetate (3 part)"}, "[11]": {"details": "Heptane (7 parts)/Ethyl formate (3 part)"}, "[12]": {"details": "Heptane (7 parts)/Heptane (3 part)"}, "[13]": {"details": "Heptane (7 parts)/Isopropyl acetate (3 part)"}, "[14]": {"details": "Heptane (7 parts)/Methanol (3 part)"}, "[15]": {"details": "Heptane (7 parts)/Methyl acetate (3 part)"}, "[16]": {"details": "Heptane (7 parts)/Methylethyl ketone (3 part)"}, "[17]": {"details": "Heptane (7 parts)/Nitromethane (3 part)"}, "[18]": {"details": "Heptane (7 parts)/Tetrahydrofuran (3 part)"}, "[19]": {"details": "Heptane (7 parts)/Toluene (3 part)"}, "[20]": {"details": "Heptane (7 parts)/Water (3 part)"}, "[21]": {"details": "Heptane (7 parts)/tert-Butylmethyl ether (3 part)"}}}
{"smiles": "COc1ccc2c(ccn2C[C@@H](C)N(C)C)c1.Cl", "note": "[Compound 1 HCl]", "values": [{"measurement": "Observations (t = 14 days @ ambient)", "setting": "[1]; A: Water 10.0 vol + Acetone 250 μL", "result": "Solid"}, {"measurement": "Observations (t = 14 days @ ambient)", "setting": "[1]; B: Water 10.0 vol + Acetonitrile 250 μL", "result": "Solid"}, {"measurement": "Observations (t = 14 days @ ambient)", "setting": "[1]; C: Water 10.0 vol + THF 250 μL", "result": "Solid"}, {"measurement": "Observations (t = 14 days @ ambient)", "setting": "[1]; D: Water 10.0 vol + Methanol 250 μL", "result": "Solid"}]}
{"smiles": "COc1ccc2c(ccn2C[C@@H](C)[NH+](C)C)c1.O=C(O)/C=C/C(=O)O", "note": "[Compound 1 fumarate, (R)-1-(5-methoxy-1H-indol-1-yl)-N,N-dimethylpropan-2-amine fumarate]", "values": [{"measurement": "Observations (t = 0 @ 40° C.)", "setting": "[2]; [3]", "result": "Gum"}, {"measurement": "XRPD (post oven dried)", "setting": "[2]; [3]", "result": "Pattern #1"}, {"measurement": "XRPD (wet)", "setting": "[2]; [3]", "result": "Pattern #1"}, {"measurement": "Observations (t = 3 d) @ 40° C.)", "setting": "[2]; [4]", "result": "Suspension"}, {"measurement": "XRPD (post oven dried)", "setting": "[2]; [4]", "result": "Pattern #1"}, {"measurement": "XRPD (wet)", "setting": "[2]; [4]", "result": "Pattern #1"}, {"measurement": "Observations (t = 0 @ 40° C.)", "setting": "[2]; [5]", "result": "Gum"}, {"measurement": "Observations (t = 1 d) @ 40° C.)", "setting": "[2]; [5]", "result": "Gum"}, {"measurement": "Observations (t = 3 d) @ 40° C.)", "setting": "[2]; [5]", "result": "Gum/oil"}, {"measurement": "Observations (t = 7 d @ 40° C.)", "setting": "[2]; [5]", "result": "Gum"}, {"measurement": "XRPD (post oven dried)", "setting": "[2]; [5]", "result": "Pattern #1"}, {"measurement": "XRPD (wet)", "setting": "[2]; [5]", "result": "Pattern #1"}, {"measurement": "Observations (t = 0 @ 40° C.)", "setting": "[2]; [6]", "result": "Oil (biphasic)"}, {"measurement": "Observations (t = 1 d) @ 40° C.)", "setting": "[2]; [6]", "result": "Oil (biphasic)"}, {"measurement": "Observations (t = 3 d) @ 40° C.)", "setting": "[2]; [6]", "result": "Oil (biphasic)"}, {"measurement": "Observations (t = 7 d @ 40° C.)", "setting": "[2]; [6]", "result": "Oil (biphasic)"}, {"measurement": "Observations (t = 0 @ 40° C.)", "setting": "[2]; [7]", "result": "Gum"}, {"measurement": "Observations (t = 1 d) @ 40° C.)", "setting": "[2]; [7]", "result": "Gum"}, {"measurement": "XRPD (post oven dried)", "setting": "[2]; [7]", "result": "Pattern #1"}, {"measurement": "XRPD (wet)", "setting": "[2]; [7]", "result": "Pattern #1"}, {"measurement": "XRPD (post oven dried)", "setting": "[2]; [8]", "result": "Pattern #1"}, {"measurement": "XRPD (wet)", "setting": "[2]; [8]", "result": "Pattern #1"}, {"measurement": "Observations (t = 3 d) @ 40° C.)", "setting": "[2]; [9]", "result": "Suspension"}, {"measurement": "XRPD (post oven dried)", "setting": "[2]; [9]", "result": "Pattern #1"}, {"measurement": "XRPD (wet)", "setting": "[2]; [9]", "result": "Pattern #1"}, {"measurement": "Observations (t = 0 @ 40° C.)", "setting": "[2]; [10]", "result": "Gum"}, {"measurement": "Observations (t = 1 d) @ 40° C.)", "setting": "[2]; [10]", "result": "Gum"}, {"measurement": "Observations (t = 3 d) @ 40° C.)", "setting": "[2]; [10]", "result": "Gum"}, {"measurement": "Observations (t = 7 d @ 40° C.)", "setting": "[2]; [10]", "result": "Oil/gum"}, {"measurement": "Observations (t = 3 d) @ 40° C.)", "setting": "[2]; [11]", "result": "Gum"}, {"measurement": "XRPD (post oven dried)", "setting": "[2]; [11]", "result": "Pattern #1"}, {"measurement": "XRPD (wet)", "setting": "[2]; [11]", "result": "Pattern #1"}, {"measurement": "Observations (t = 0 @ 40° C.)", "setting": "[2]; [12]", "result": "Gum"}, {"measurement": "Observations (t = 1 d) @ 40° C.)", "setting": "[2]; [12]", "result": "Gum"}, {"measurement": "XRPD (post oven dried)", "setting": "[2]; [12]", "result": "Pattern #1"}, {"measurement": "XRPD (wet)", "setting": "[2]; [12]", "result": "Pattern #1"}, {"measurement": "Observations (t = 0 @ 40° C.)", "setting": "[2]; [13]", "result": "Gum"}, {"measurement": "XRPD (post oven dried)", "setting": "[2]; [13]", "result": "Pattern #1"}, {"measurement": "XRPD (wet)", "setting": "[2]; [13]", "result": "Pattern #1"}, {"measurement": "Observations (t = 0 @ 40° C.)", "setting": "[2]; [14]", "result": "Oil (biphasic)"}, {"measurement": "Observations (t = 1 d) @ 40° C.)", "setting": "[2]; [14]", "result": "Oil (biphasic)"}, {"measurement": "Observations (t = 3 d) @ 40° C.)", "setting": "[2]; [14]", "result": "Biphasic (oil)"}, {"measurement": "Observations (t = 7 d @ 40° C.)", "setting": "[2]; [14]", "result": "Oil (biphasic)"}, {"measurement": "XRPD (post oven dried)", "setting": "[2]; [14]", "result": "Pattern #1"}, {"measurement": "XRPD (wet)", "setting": "[2]; [14]", "result": "Pattern #1"}, {"measurement": "XRPD (post oven dried)", "setting": "[2]; [15]", "result": "Pattern #1"}, {"measurement": "XRPD (wet)", "setting": "[2]; [15]", "result": "Pattern #1"}, {"measurement": "Observations (t = 0 @ 40° C.)", "setting": "[2]; [16]", "result": "Gum"}, {"measurement": "XRPD (post oven dried)", "setting": "[2]; [16]", "result": "Pattern #1"}, {"measurement": "XRPD (wet)", "setting": "[2]; [16]", "result": "Pattern #1"}, {"measurement": "Observations (t = 0 @ 40° C.)", "setting": "[2]; [17]", "result": "Oil (biphasic)"}, {"measurement": "Observations (t = 1 d) @ 40° C.)", "setting": "[2]; [17]", "result": "Oil (biphasic)"}, {"measurement": "Observations (t = 3 d) @ 40° C.)", "setting": "[2]; [17]", "result": "Oil (biphasic)"}, {"measurement": "Observations (t = 0 @ 40° C.)", "setting": "[2]; [18]", "result": "Gum"}, {"measurement": "XRPD (post oven dried)", "setting": "[2]; [18]", "result": "Pattern #1"}, {"measurement": "XRPD (wet)", "setting": "[2]; [18]", "result": "Pattern #1"}, {"measurement": "Observations (t = 0 @ 40° C.)", "setting": "[2]; [19]", "result": "Gum"}, {"measurement": "Observations (t = 1 d) @ 40° C.)", "setting": "[2]; [19]", "result": "Gum"}, {"measurement": "XRPD (post oven dried)", "setting": "[2]; [19]", "result": "Pattern #1"}, {"measurement": "XRPD (wet)", "setting": "[2]; [19]", "result": "Pattern #1"}, {"measurement": "Observations (t = 0 @ 40° C.)", "setting": "[2]; [20]", "result": "Oil (biphasic)"}, {"measurement": "Observations (t = 1 d) @ 40° C.)", "setting": "[2]; [20]", "result": "Oil (biphasic)"}, {"measurement": "Observations (t = 3 d) @ 40° C.)", "setting": "[2]; [20]", "result": "Oil (biphasic)"}, {"measurement": "Observations (t = 7 d @ 40° C.)", "setting": "[2]; [20]", "result": "Oil (biphasic)"}, {"measurement": "Observations (t = 0 @ 40° C.)", "setting": "[2]; [21]", "result": "Gum"}, {"measurement": "Observations (t = 1 d) @ 40° C.)", "setting": "[2]; [21]", "result": "Gum"}, {"measurement": "Observations (t = 3 d) @ 40° C.)", "setting": "[2]; [21]", "result": "Gum"}, {"measurement": "Observations (t = 7 d @ 40° C.)", "setting": "[2]; [21]", "result": "Oil/gum"}]}
